The values that follow are results of earlier work, collected in patent publication US7579333B2 (Teva Pharmaceutical Industries Ltd., priority 2004, dated 2009).

Series [1] deals with new vertebral fractures. Particulars: post-menopausal women with osteoporosis.
Series [2] relates to femoral bone mass density. Particulars: 1 year; 60 mg/day raloxifene, 10 mg/day alendronate; 331 patients.
For series [3] the following is noted: in vivo.

Turning to `O=C(c1ccc(OCCN2CCCCC2)cc1)c1c(-c2ccc(O)cc2)sc2cc(O)ccc12` [raloxifene], the “decrease in incidence of new vertebral fractures” value in series [1] is on record as 30-50%. For the same compound, the “improvement in femoral bone mass density” value in series [2] was 1.7%.

On to `NCCCC(O)(P(=O)(O)O)P(=O)(O)O` [alendronate], for which the “pH at which best absorbed” value in series [3] is reported as ~6.
